Laboratory results as given in PubChem BioAssay (NCI).
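Values below derive from 48-hour exposures of cells grown in 96-well plates, with endpoints linearly interpolated between the two concentrations bracketing the appropriate inhibition level. At the GI50, growth is halved. The concentration for full growth arrest is given as TGI.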

Assays:
Assay in all cases: DTP human tumour cell line panel, 48 h
786-0 renal = tested on: 786-0 renal
A549 NSCLC = tested on: A549 NSCLC
ACHN renal = tested on: ACHN renal
BT-549 breast = tested on: BT-549 breast
CAKI-1 renal = tested on: CAKI-1 renal
COLO 205 colon = tested on: COLO 205 colon
DU-145 prostate = tested on: DU-145 prostate
EKVX NSCLC = tested on: EKVX NSCLC
HCT-116 colon = tested on: HCT-116 colon
HCT-15 colon = tested on: HCT-15 colon
HL-60(TB) leukemia = tested on: HL-60(TB) leukemia
HOP-62 NSCLC = tested on: HOP-62 NSCLC
HS 578T breast = tested on: HS 578T breast
HT29 colon = tested on: HT29 colon
IGROV1 ovarian = tested on: IGROV1 ovarian
K-562 leukemia = tested on: K-562 leukemia
KM12 colon = tested on: KM12 colon
LOX IMVI melanoma = tested on: LOX IMVI melanoma
M14 melanoma = tested on: M14 melanoma
MALME-3M melanoma = tested on: MALME-3M melanoma
MCF7 breast = tested on: MCF7 breast
MDA-MB-231 breast = tested on: MDA-MB-231 breast
MDA-MB-435 = tested on: MDA-MB-435
MOLT-4 leukemia = tested on: MOLT-4 leukemia
NCI-H226 lung = tested on: NCI-H226 lung
NCI-H23 lung = tested on: NCI-H23 lung
NCI-H460 lung = tested on: NCI-H460 lung
NCI-H522 lung = tested on: NCI-H522 lung
NCI/ADR-RES ovarian = tested on: NCI/ADR-RES ovarian
OVCAR-3 ovarian = tested on: OVCAR-3 ovarian
OVCAR-5 ovarian = tested on: OVCAR-5 ovarian
OVCAR-8 ovarian = tested on: OVCAR-8 ovarian
PC-3 prostate = tested on: PC-3 prostate
RXF 393 renal = tested on: RXF 393 renal
SF-268 CNS = tested on: SF-268 CNS
SF-295 CNS = tested on: SF-295 CNS
SF-539 CNS = tested on: SF-539 CNS
SK-MEL-28 melanoma = tested on: SK-MEL-28 melanoma
SK-MEL-5 melanoma = tested on: SK-MEL-5 melanoma
SK-OV-3 ovarian = tested on: SK-OV-3 ovarian
SN12C renal = tested on: SN12C renal
SNB-19 CNS = tested on: SNB-19 CNS
SNB-75 CNS = tested on: SNB-75 CNS
SR leukemia = tested on: SR leukemia
SW-620 colon = tested on: SW-620 colon
T-47D breast = tested on: T-47D breast
TK-10 renal = tested on: TK-10 renal
U251 CNS = tested on: U251 CNS
UACC-257 melanoma = tested on: UACC-257 melanoma
UACC-62 melanoma = tested on: UACC-62 melanoma
UO-31 renal = tested on: UO-31 renal
A498 renal = tested on: A498 renal
CCRF-CEM leukemia = tested on: CCRF-CEM leukemia
HCC-2998 colon = tested on: HCC-2998 colon
HOP-92 NSCLC = tested on: HOP-92 NSCLC
OVCAR-4 ovarian = tested on: OVCAR-4 ovarian
RPMI-8226 leukemia = tested on: RPMI-8226 leukemia
SK-MEL-2 melanoma = tested on: SK-MEL-2 melanoma

## C/C(=C\CO)CC/C=C(\C)CNc1ccccc1
786-0 renal
  TGI: > 100 µM
A549 NSCLC
  TGI: > 100 µM
ACHN renal
  TGI: > 100 µM
BT-549 breast
  TGI: 55.2 µM
CAKI-1 renal
  TGI: > 100 µM
COLO 205 colon
  TGI: > 100 µM
DU-145 prostate
  TGI: > 100 µM
EKVX NSCLC
  TGI: 93.7 µM
HCT-116 colon
  TGI: > 100 µM
HCT-15 colon
  TGI: > 100 µM
HL-60(TB) leukemia
  TGI: > 100 µM
HOP-62 NSCLC
  TGI: > 100 µM
HS 578T breast
  TGI: 97.8 µM
HT29 colon
  TGI: 47.9 µM
IGROV1 ovarian
  TGI: > 100 µM
K-562 leukemia
  TGI: > 100 µM
KM12 colon
  TGI: > 100 µM
LOX IMVI melanoma
  TGI: > 100 µM
M14 melanoma
  TGI: > 100 µM
MALME-3M melanoma
  TGI: 66.9 µM
MCF7 breast
  TGI: > 100 µM
MDA-MB-231 breast
  TGI: > 100 µM
MDA-MB-435
  TGI: > 100 µM
MOLT-4 leukemia
  TGI: 25.7 µM
NCI-H226 lung
  TGI: > 100 µM
NCI-H23 lung
  TGI: 27.1 µM
NCI-H460 lung
  TGI: > 100 µM
NCI-H522 lung
  TGI: 98.5 µM
NCI/ADR-RES ovarian
  TGI: > 100 µM
OVCAR-3 ovarian
  TGI: > 100 µM
OVCAR-5 ovarian
  TGI: > 100 µM
OVCAR-8 ovarian
  TGI: > 100 µM
PC-3 prostate
  TGI: > 100 µM
RXF 393 renal
  TGI: > 100 µM
SF-268 CNS
  TGI: > 100 µM
SF-295 CNS
  TGI: > 100 µM
SF-539 CNS
  TGI: > 100 µM
SK-MEL-28 melanoma
  TGI: > 100 µM
SK-MEL-5 melanoma
  TGI: 34.1 µM
SK-OV-3 ovarian
  TGI: > 100 µM
SN12C renal
  TGI: > 100 µM
SNB-19 CNS
  TGI: > 100 µM
SNB-75 CNS
  TGI: 54.6 µM
SR leukemia
  TGI: 79.5 µM
SW-620 colon
  TGI: > 100 µM
T-47D breast
  TGI: 81 µM
TK-10 renal
  TGI: 65.4 µM
U251 CNS
  TGI: > 100 µM
UACC-257 melanoma
  TGI: 91.8 µM
UACC-62 melanoma
  TGI: > 100 µM
UO-31 renal
  TGI: > 100 µM

## C=C1C(=O)c2sccc2C(c2ccc(OC)c(OC)c2)C1COC(C)=O (stereo not drawn)
786-0 renal
  GI50: 0.297 µM
  TGI: 3.99 µM
A498 renal
  GI50: 2.13 µM
  TGI: 7.2 µM
A549 NSCLC
  GI50: 3.25 µM
  TGI: 11.5 µM
ACHN renal
  GI50: 1.86 µM
BT-549 breast
  GI50: 2.11 µM
  TGI: 4.79 µM
CAKI-1 renal
  GI50: 2.1 µM
  TGI: 6.57 µM
CCRF-CEM leukemia
  GI50: 0.0661 µM
  TGI: 0.777 µM
COLO 205 colon
  GI50: 2.25 µM
  TGI: 4.89 µM
DU-145 prostate
  GI50: 0.761 µM
  TGI: 2.04 µM
EKVX NSCLC
  GI50: 8.37 µM
  TGI: 21.3 µM
HCC-2998 colon
  GI50: 2.89 µM
  TGI: 7.56 µM
HCT-116 colon
  GI50: 1.62 µM
  TGI: 10.3 µM
HCT-15 colon
  GI50: 2.03 µM
HL-60(TB) leukemia
  GI50: 2.98 µM
  TGI: > 100 µM
HOP-62 NSCLC
  GI50: 6.54 µM
  TGI: 15.7 µM
HOP-92 NSCLC
  GI50: 2.46 µM
  TGI: 6.91 µM
HS 578T breast
  GI50: 2.54 µM
  TGI: 8.4 µM
HT29 colon
  GI50: 1.36 µM
  TGI: 4.01 µM
IGROV1 ovarian
  GI50: 2.27 µM
  TGI: 5.67 µM
K-562 leukemia
  GI50: 0.2 µM
  TGI: > 29.7 µM
KM12 colon
  GI50: 1.21 µM
  TGI: > 25.7 µM
LOX IMVI melanoma
  GI50: 0.173 µM
M14 melanoma
  TGI: 3.1 µM
MALME-3M melanoma
  GI50: 1.5 µM
  TGI: 6.41 µM
MCF7 breast
  GI50: 0.953 µM
  TGI: 2.98 µM
MDA-MB-231 breast
  GI50: 0.551 µM
  TGI: 2.48 µM
MDA-MB-435
  GI50: 1.92 µM
  TGI: 6.18 µM
MOLT-4 leukemia
  GI50: 0.219 µM
  TGI: 0.733 µM
NCI-H226 lung
  GI50: 2.93 µM
  TGI: 8.56 µM
NCI-H23 lung
  GI50: 1.54 µM
  TGI: 4.94 µM
NCI-H460 lung
  GI50: 3.72 µM
  TGI: 14 µM
NCI-H522 lung
  GI50: 1.13 µM
  TGI: 4.04 µM
NCI/ADR-RES ovarian
  GI50: 2.36 µM
OVCAR-3 ovarian
  GI50: 1.67 µM
  TGI: 5.79 µM
OVCAR-4 ovarian
  GI50: 4.81 µM
  TGI: 19.5 µM
OVCAR-5 ovarian
  GI50: 2.42 µM
  TGI: 9.29 µM
OVCAR-8 ovarian
  GI50: 2.74 µM
  TGI: 8.14 µM
PC-3 prostate
  GI50: 1.3 µM
  TGI: 2.81 µM
RPMI-8226 leukemia
  TGI: 0.0366 µM
RXF 393 renal
  GI50: 0.595 µM
  TGI: 1.99 µM
SF-268 CNS
  GI50: 3.44 µM
  TGI: 12.9 µM
SF-295 CNS
  GI50: 4.43 µM
  TGI: 16.5 µM
SF-539 CNS
  GI50: 1.61 µM
  TGI: 3.27 µM
SK-MEL-2 melanoma
  GI50: 10.8 µM
  TGI: 23 µM
SK-MEL-28 melanoma
  GI50: 2.15 µM
  TGI: 4.42 µM
SK-MEL-5 melanoma
  GI50: 1.9 µM
  TGI: 4.74 µM
SK-OV-3 ovarian
  GI50: 5.46 µM
  TGI: 20 µM
SN12C renal
  GI50: 1.33 µM
  TGI: 3.24 µM
SNB-19 CNS
  GI50: 8.47 µM
  TGI: 32.7 µM
SNB-75 CNS
  GI50: 8.39 µM
  TGI: 28.8 µM
SW-620 colon
  GI50: 0.656 µM
  TGI: 2.51 µM
T-47D breast
  GI50: 2.24 µM
  TGI: 5.77 µM
TK-10 renal
  GI50: 1.34 µM
  TGI: 4.85 µM
U251 CNS
  GI50: 1.62 µM
UACC-257 melanoma
  GI50: 1.93 µM
  TGI: 5.77 µM
UACC-62 melanoma
  GI50: 1.43 µM
  TGI: 3.17 µM
UO-31 renal
  GI50: 1.81 µM
  TGI: 3.39 µM
